One experiment deals with U937 cells. The experiment in a line: Cellular assay in U937 cells: activity of RIPK1 inhibitors on TNFα/zVAD.fmk-induced cell death (necroptosis), CellTiter 96 AQueous (MTS) readout. To be noted: Homo sapiens, U-937. Type of experiment: cell-based. In short, it runs like this:
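Necroptosis was measured by viable-cell MTS reduction (4 h, absorbance 490 nm) after overnight (18–24 h) 37° C culture. Cell suspensions of U937 cells carried TNFα (100 ng/ml) plus zVAD.fmk (50 μM) before compound was added. A 10-point curve (10 μM–0.26 nM or 1 μM–0.07 nM) was run in duplicate, normalised to the control lacking TNFα/zVAD.fmk.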

For experiment [1], the target named is T1, hRIPK1 (aa 1-375) fusion protein (Homo sapiens, UniProt Q13546).
T1 construct: hRIPK1 (aa 1-375) fusion protein
T1 sequence (Q13546 1-375): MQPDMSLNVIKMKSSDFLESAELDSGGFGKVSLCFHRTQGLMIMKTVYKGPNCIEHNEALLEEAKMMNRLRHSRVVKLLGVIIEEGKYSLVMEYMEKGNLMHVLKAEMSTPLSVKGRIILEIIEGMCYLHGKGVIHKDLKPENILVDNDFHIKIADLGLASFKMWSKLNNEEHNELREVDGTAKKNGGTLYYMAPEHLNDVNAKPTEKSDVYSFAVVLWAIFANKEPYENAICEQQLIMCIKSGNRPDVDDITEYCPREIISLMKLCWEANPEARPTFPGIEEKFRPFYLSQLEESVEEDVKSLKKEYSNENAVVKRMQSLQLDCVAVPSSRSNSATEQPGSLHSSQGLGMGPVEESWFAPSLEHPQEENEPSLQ
The experiment in a line: ADP-Glo kinase assay: catalytic activity of RIPK1 (autophosphorylation, conversion of ATP to ADP). Type of experiment: biochemical. In short, it runs like this: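 The readout was ADP-Glo luminescence after a 240 min rt autophosphorylation reaction with 50 μM ATP, following 30 min preincubation of 3.6 μg/ml hRIPK1 (aa 1-375) fusion with compound at 33300-1.69 nM final in 1% DMSO. Values came from Levenberg-Marquardt nonlinear fits.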
(In ADP-Glo the light output rises with the ADP produced.)

Each structure is given as a SMILES string.

By IC50 is commonly meant the concentration that gives 50% inhibition. A high value points to weaker potency in that assay. For `Cc1cn2ncc(C[C@H]3CC[C@H](C(=O)N4OCC[C@H]4c4cccc(F)c4)CC3)cc2n1` [compound 323, [2-fluoro-4-[(3S)-2-[4-[(2-methylimidazo[1,2-b]pyridazin-7-yl)methyl]cyclohexanecarbonyl]isoxazolidin-3-yl]phenyl]], the IC50 is 6 nM with U937 cells and 10 nM in experiment [1].

In the case of `CNC(=O)c1cc(F)cc(C[C@H]2CC[C@H](C(=O)N3OCC[C@H]3c3cnccn3)CC2)c1` [compound 162, trans-3-fluoro-N-methyl-5-[[4-[(3S)-3-pyrazin-2-ylisoxazolidine-2-carbonyl]cyclohexyl]methyl]benzamide], the concentration for half-maximal inhibition (IC50) in the experiment with U937 cells came to 15 nM; in experiment [1], 4 nM.

Take `CNC(=O)c1cc(F)cc(C[C@H]2CC[C@H](C(=O)N3OCC[C@H]3c3cc(F)cc(C#N)c3)CC2)c1` [compound 164, trans-3-[[4-[(3S)-3-(3-cyano-5-fluoro-phenyl)isoxazolidine-2-carbonyl]cyclohexyl]methyl]-5-fluoro-N-methyl-benzamide]: the IC50 was 7 nM with U937 cells and 5 nM in experiment [1].

In the case of `Cc1ncc(C[C@H]2CC[C@H](C(=O)N3OCC[C@H]3c3cnccn3)CC2)cn1` [compound 346, trans-[4-[(2-methylpyrimidin-5-yl)methyl]cyclohexyl]-[(3S)-3-pyrazin-2-yl-1,2-oxazolidin-2-yl]methanone], the IC50 in the experiment with U937 cells came out at 70 nM; in experiment [1], 83 nM.

For `Cc1ncc(C#N)cc1C[C@H]1CC[C@H](C(=O)N2OCC[C@H]2c2cc(F)cc(C#N)c2)CC1` [compound 277, trans-5-[[4-[(3S)-3-(3-cyano-5-fluoro-phenyl)isoxazolidine-2-carbonyl]cyclohexyl]methyl]-6-methyl-pyridine-3-carbonitrile], the IC50 in the experiment on U937 cells was 4 nM; in experiment [1], 19 nM.

Take `Cc1cnc([C@@H]2CCON2C(=O)[C@H]2CC[C@H](Cc3cc(F)c4nc(C)nn4c3)CC2)cn1` [compound 379, trans-[4-[(8-fluoro-2-methyl-[1,2,4]triazolo[1,5-a]pyridin-6-yl)methyl]cyclohexyl]-[(3S)-3-(5-methylpyrazin-2-yl)-1,2-oxazolidin-2-yl]methanone]: the 50% inhibitory concentration (IC50) in the experiment on U937 cells worked out at 191 nM; in experiment [1] it was 50 nM.

For `N#Cc1cncc(C[C@H]2CC[C@H](C(=O)N3OCC[C@H]3c3cnccn3)CC2)c1` [compound 140, trans-5-[[4-[(3S)-3-pyrazin-2-ylisoxazolidine-2-carbonyl]cyclohexyl]methyl]pyridine-3-carbonitrile], the 50% inhibitory concentration (IC50) with U937 cells turned out to be 173 nM; in experiment [1] it was 40 nM.

Regarding `N#Cc1cc(F)c2ccn(C[C@H]3CC[C@H](C(=O)N4OCC[C@H]4c4cc(F)cc(F)c4)CC3)c2c1` [compound 45, trans-1-((4-((S)-3-(3,5-difluorophenyl)isoxazolidine-2-carbonyl)cyclohexyl)methyl)-4-fluoro-1H-indole-6-carbonitrile], the IC50 in the experiment on U937 cells turned out to be 6 nM; in experiment [1] it was 18 nM.

With `Cc1c2ccccc2nn1C[C@H]1CC[C@H](C(=O)N2OCC[C@H]2c2cc(F)cc(C#N)c2)CC1` [compound 63, trans-3-fluoro-5-((S)-2-(4-((3-methyl-2H-indazol-2-yl)methyl)cyclohexane-1-carbonyl)isoxazolidin-3-yl)benzonitrile], the 50% inhibitory concentration (IC50) in the experiment with U937 cells came to 55 nM; in experiment [1] it was 27 nM.

On to `N#Cc1cc(F)c2cn(C[C@H]3CC[C@H](C(=O)N4OCC[C@H]4c4cc(F)cc(F)c4)CC3)nc2c1` [compound 35, trans-2-((4-((S)-3-(3,5-difluorophenyl)isoxazolidine-2-carbonyl)cyclohexyl)methyl)-4-fluoro-2H-indazole-6-carbonitrile], for which the half-inhibitory concentration (IC50) in the experiment on U937 cells was 48 nM; in experiment [1] it was 41 nM.

As to `Cn1nccc1C[C@H]1CC[C@H](C(=O)N2OCC[C@H]2c2cc(F)cc(C#N)c2)CC1` [compound 237, trans-3-fluoro-5-[(3S)-2-[4-[(2-methylpyrazol-3-yl)methyl]cyclohexanecarbonyl]isoxazolidin-3-yl]benzonitrile], the values for the 50% inhibitory concentration (IC50) (with U937 cells; in experiment [1]) were 66 nM and 23 nM, respectively.

Take `NC(=O)c1ccc2c(cnn2C[C@H]2CC[C@H](C(=O)N3OCC[C@H]3c3cc(F)cc(F)c3)CC2)c1` [compound 73, trans-1-((4-((S)-3-(3,5-difluorophenyl)isoxazolidine-2-carbonyl)cyclohexyl)methyl)-1H-indazole-5-carboxamide]: the IC50 in the experiment on U937 cells amounted to 9 nM; in experiment [1] it was 24 nM.

Regarding `N#Cc1cc(F)cc([C@@H]2CCON2C(=O)[C@H]2CC[C@H](Cn3ncc4cc(F)c(C#N)cc43)CC2)c1` [compound 87, trans-1-((4-((S)-3-(3-cyano-5-fluorophenyl)isoxazolidine-2-carbonyl)cyclohexyl)methyl)-5-fluoro-1H-indazole-6-carbonitrile], the results for the 50% inhibitory concentration (IC50) (with U937 cells; in experiment [1]) were 3 nM and 18 nM, respectively.

Turning to `Cc1c(F)cc([C@@H]2CCON2C(=O)[C@H]2CC[C@H](Cc3cncc(C#N)c3C)CC2)cc1C#N` [compound 287, trans-5-[[4-[(3S)-3-(3-cyano-5-fluoro-4-methyl-phenyl)isoxazolidine-2-carbonyl]cyclohexyl]methyl]-4-methyl-pyridine-3-carbonitrile], the IC50 worked out at 1 nM in the experiment with U937 cells and 2 nM in experiment [1].

Regarding `Cc1ncc(C[C@H]2CC[C@H](C(=O)N3OCC[C@H]3c3cc(F)cc(F)c3)CC2)cn1` [compound 264, trans-[(3S)-3-(3,5-difluorophenyl)isoxazolidin-2-yl]-[4-[(2-methylpyrimidin-5-yl)methyl]cyclohexyl]methanone], the IC50 was found to be 16 nM in the experiment on U937 cells and 14 nM in experiment [1].

As to `NC(=O)c1ccc2cnn(C[C@H]3CC[C@H](C(=O)N4OCC[C@H]4c4ccccn4)CC3)c2c1` [Compound 230, trans-1-[[4-[(3S)-3-(2-pyridyl)isoxazolidine-2-carbonyl]cyclohexyl]methyl]indazole-6-carboxamide], the IC50 with U937 cells worked out at 376 nM; in experiment [1], 131 nM.

For `N#Cc1cc(F)cc([C@@H]2CCON2C(=O)[C@H]2CC[C@H](Cn3ccc4cc(F)c(C#N)cc43)CC2)c1` [compound 22, trans-1-((4-((S)-3-(3-cyano-5-fluorophenyl)isoxazolidine-2-carbonyl)cyclohexyl)methyl)-5-fluoro-1H-indole-6-carbonitrile], the IC50 turned out to be 2 nM in the experiment with U937 cells and 20 nM in experiment [1].

Consider `Cc1nccn1-c1cc(F)cc(C[C@H]2CC[C@H](C(=O)N3OCC[C@H]3c3cc(F)cc(C#N)c3)CC2)c1` [compound 216, trans-3-fluoro-5-[(3S)-2-[4-[[3-fluoro-5-(2-methylimidazol-1-yl)phenyl]methyl]cyclohexanecarbonyl]isoxazolidin-3-yl]benzonitrile], for which the IC50 is 10 nM in the experiment with U937 cells and 15 nM in experiment [1].

Regarding `N#Cc1cc(F)cc([C@@H]2CCON2C(=O)[C@H]2CC[C@H](Cc3cncnc3)CC2)c1` [compound 247, trans-3-fluoro-5-[(3S)-2-[4-(pyrimidin-5-ylmethyl)cyclohexanecarbonyl]isoxazolidin-3-yl]benzonitrile], the IC50 in the experiment on U937 cells stood at 136 nM; in experiment [1] it was 22 nM.

Turning to `N#Cc1cc2c(ccn2C[C@H]2CC[C@H](C(=O)N3OCC[C@H]3c3cc(F)cc(F)c3)CC2)cc1F` [compound 23, trans-1-((4-((S)-3-(3,5-difluorophenyl)isoxazolidine-2-carbonyl)cyclohexyl)methyl)-5-fluoro-1H-indole-6-carbonitrile], the concentration for half-maximal inhibition (IC50) worked out at 3 nM with U937 cells and 21 nM in experiment [1].

Consider `Cn1nccc1C[C@H]1CC[C@H](C(=O)N2OCC[C@H]2c2cnccn2)CC1` [compound 238, trans-[4-[(2-methylpyrazol-3-yl)methyl]cyclohexyl]-[(3S)-3-pyrazin-2-ylisoxazolidin-2-yl]methanone], for which the IC50 stood at 257 nM with U937 cells and 41 nM in experiment [1].

With `CNC(=O)c1ccc(F)c(C[C@H]2CC[C@H](C(=O)N3OCC[C@H]3c3cc(F)cc(C#N)c3)CC2)c1` [compound 177, trans-3-[[4-[(3S)-3-(3-cyano-5-fluoro-phenyl)isoxazolidine-2-carbonyl]cyclohexyl]methyl]-4-fluoro-N-methyl-benzamide], the IC50 with U937 cells was 5 nM; in experiment [1] it was 11 nM.

Take `Cc1ccc([C@@H]2CCON2C(=O)[C@H]2CC[C@H](Cc3ccc(C)c(C(N)=O)c3)CC2)cc1` [compound 131, trans-2-methyl-5-[[4-[(3S)-3-(p-tolyl)isoxazolidine-2-carbonyl]cyclohexyl]methyl]benzamide]: the IC50 in the experiment on U937 cells was found to be 5 nM; in experiment [1], 15 nM.

Take `Cc1nc2c(C)cc(C[C@H]3CC[C@@](C)(C(=O)N4OCC[C@H]4c4cnc(C)c(F)c4)CC3)cn2n1` [compound 402]: the values for the IC50 (with U937 cells; in experiment [1]) were 1130 nM and 2000 nM, respectively.

For `O=C1NCc2c(F)cc(C[C@H]3CC[C@H](C(=O)N4OCC[C@H]4c4ccc(F)cc4)CC3)cc21` [compound 212, trans-4-fluoro-6-[[4-[(3S)-3-(4-fluorophenyl)isoxazolidine-2-carbonyl]cyclohexyl]methyl]isoindolin-1-one], the half-maximal inhibitory concentration (IC50) in the experiment with U937 cells turned out to be 10 nM; in experiment [1] it was 23 nM.

The values above are taken from patent publication US20260158009A1 (GENZYME CORPORATION, priority 2023, published 2026).
